# Experimental data published in publication PMC4503439, “Dose-Independent ADME Properties and Tentative Identification of Metabolites of α-Mangostin from Garcinia mangostana in Mice by Automated Microsampling and UPLC-MS/MS Methods” (PLoS ONE, 2015).
# Test: Tentative identification of metabolites from α-MG by UPLC-MS/MS
# Type: in vivo
# Conditions: mice after intravenous and oral α-MG; S9 fractions after 30-min incubation
# Description: Probable metabolites of α-MG were identified using the simultaneous full scan MS, MRM and MS/MS modes in a Waters UPLC-XEVO TQ system (Waters Corporation, Milford, USA) to confirm the structures of any metabolites. […] Structural elucidation of the metabolites was based on the fragmentation patterns of parent ion from the MS/MS mode at a collision energy of 10 to 20 eV generating daughter ions. The mass transitions for α-MG was m/z 411.21 → 354.85 (collision energy of 20 eV and collision cell exit potential of 25 eV, respectively). The unknown masses were further analyzed in MS/MS (daughter scan) mode with the electrospray ionization interface used to generate positive and negative ions at a capillary voltage of 3.0 kV, source temperature of 350°C and desolvation gas temperature of 650°C. The MRM methods for identification of possible metabolites generated by phase I and/or II reactions were included.
# These compounds were separated on a reversed-phase C18 column (XSELECT CSH, 2.1 mm × 100 mm i.d., 1.7-μm particle size; Waters, Ireland) with a flow rate of 0.35 mL/min. The mobile phase composition was started at 95: 5 (v/v) of distilled water containing 0.1% formic acid (A) and acetonitrile (B) and gradually changed to 35: 65 (v/v) for 30 min, and then switched back to 95: 5 (v/v) for 40 min.
row,Source (samples in which detected),Structure (SMILES)
1,"urine, feces, liver, small intestine",COc1c(O)cc2oc3cc4c(c(O)c3c(=O)c2c1CC=C(C)C)C=CC(C)(C)O4 [M7]
2,"urine, feces, liver, small intestine",COc1c(O)cc2oc3cc(O)c4c(c3c(=O)c2c1CC=C(C)C)OC(C)(C)C=C4 [M8]
3,"liver, small intestine, feces",COc1c(O)cc2oc3cc(O)c(CC4OC4(C)C)c(O)c3c(=O)c2c1CC=C(C)C (stereo not drawn) [M13]

# Second part, the molecule before the results:
row,Structure (SMILES),Source (samples in which detected)
1,COc1c(O)cc2oc3c(O)c(O)c(CC=C(C)C)c(O)c3c(=O)c2c1CC=C(C)C [M10],"liver, small intestine, feces"
2,COc1c(O)c(O)c2oc3cc(O)c(CC=C(C)C)c(O)c3c(=O)c2c1CC=C(C)C [M11],"liver, small intestine, feces"
3,COc1c(O)cc2oc3cc(O)c(CC=C(C)C)c(O)c3c(=O)c2c1CC1OC1(C)C (stereo not drawn) [M12],"liver, small intestine, feces"
